# “And” between values parts separate entries of the source, which are not always exact repeats. Equal entries are not always repeated.
# How the values were obtained:
# Assay in all cases: ≥ marks a high value that may be exact or a test limit, other limits are often not marked, values filed in µg/mL are converted to µM
# [1] = system: Candida albicans CGMCC 2.2086
# [2] = system: Candida parapsilosis CGMCC 2.3989
# [3] = system: Candida tropicalis CGMCC 2.1975
# [4] = system: Escherichia coli 078
# [5] = system: Escherichia coli 987P
# [6] = system: Escherichia coli ATCC 25922
# [7] = system: Escherichia coli K88
# [8] = system: Escherichia coli K99
# [9] = system: Escherichia coli UB1005
# [10] = system: Lacticaseibacillus rhamnosus 7469
# [11] = system: Lactiplantibacillus plantarum 8014
# [12] = system: Pseudomonas aeruginosa ATCC 27853
# [13] = system: Pseudomonas aeruginosa PAO1
# [14] = system: Salmonella enterica subsp. enterica serovar Typhimurium ATCC 14028
# [15] = system: Salmonella enterica subsp. enterica serovar Typhimurium C77-31
# [16] = system: Staphylococcus aureus ATCC 25923
# [17] = system: Staphylococcus aureus ATCC 29213
# [18] = system: Staphylococcus epidermidis ATCC 12228
# [19] = system: Candida albicans ATCC 5314
# [20] = system: Staphylococcus aureus ATCC 6538
# [21] = system: Staphylococcus aureus ATCC 8325-4
# [22] = system: Staphylococcus aureus MR
# [23] = system: Staphylococcus aureus
# [24] = system: Streptococcus mutans ATCC UA159
# [25] = system: Streptococcus sanguinis ATCC 10556
# [26] = system: Bacillus subtilis 168
# [27] = system: Escherichia coli BL21
# [28] = system: Escherichia coli ESBL
# [29] = system: Bacillus subtilis ATCC 6633
# [30] = system: Enterococcus faecalis ATCC 19433
# [31] = system: Enterococcus faecium ATCC 19434
# [32] = system: Klebsiella pneumoniae ATCC 13883
# [33] = system: Proteus mirabilis CCUG 26767
# [34] = system: Salmonella enterica subsp. enterica serovar Typhimurium LT2
# [35] = system: Acinetobacter baumannii KCTC 2508
# [36] = system: Bacillus subtilis KCTC 2217
# [37] = system: Bacillus amyloliquefaciens ATCC 23842
# [38] = system: Bacillus cereus ATCC 14579
# [39] = system: Bacillus licheniformis ATCC 14580
# [40] = system: Bacillus subtilis ATCC 6051
# [41] = system: Enterococcus faecalis 1F-1
# [42] = system: Enterococcus faecalis A4
# [43] = system: Enterococcus faecium 4W-9
# [44] = system: Enterococcus faecium 5F-10
# [45] = system: Proteus mirabilis ATCC 35659
# [46] = system: Salmonella enterica ATCC H9812
# [47] = system: Staphylococcus aureus 215
smiles,measurement,setting,value
CC[C@H](C)[C@H](N)C(=O)N[C@@H](Cc1cnc[nH]1)C(=O)N[C@@H](Cc1cnc[nH]1)C(=O)N[C@H](C(=O)N[C@@H](Cc1cnc[nH]1)C(=O)N[C@@H](Cc1cnc[nH]1)C(=O)N[C@H](C(N)=O)[C@@H](C)CC)[C@@H](C)CC [IHHIHHI],MIC,[1],≥ 64 µM
same,MIC,[2],≥ 64 µM
same,MIC,[3],≥ 64 µM
same,MIC,[4],≥ 64 µM
same,MIC,[5],≥ 64 µM
same,MIC,[6],> 64 µM
same,MIC,[7],≥ 64 µM
same,MIC,[8],≥ 64 µM
same,MIC,[9],≥ 64 µM
same,MIC,[10],≥ 64 µM
same,MIC,[11],≥ 64 µM
same,MIC,[12],> 64 µM
same,MIC,[13],> 64 µM
same,MIC,[14],> 64 µM
same,MIC,[15],≥ 64 µM
same,MIC,[16],> 64 µM
same,MIC,[17],> 64 µM
same,MIC,[18],> 64 µM
CC[C@H](C)[C@H](NC(=O)[C@H](CCCCN)NC(=O)[C@H](CCCN=C(N)N)NC(=O)[C@H](CCC(=O)O)NC(=O)[C@H](Cc1ccc(O)cc1)NC(=O)[C@@H](N)CO)C(=O)N[C@@H](CC(N)=O)C(=O)N[C@@H](CCCN=C(N)N)C(=O)N[C@@H](Cc1cnc[nH]1)C(=O)N[C@@H](Cc1ccccc1)C(=O)N[C@@H](CCCCN)C(=O)N[C@H](C(=O)N[C@@H](CC(C)C)C(=O)N[C@@H](CCCCN)C(=O)N[C@@H](CCCCN)C(=O)N[C@@H](CC(N)=O)C(=O)N[C@@H](CC(C)C)C(=O)N[C@@H](CCCCN)C(=O)N[C@@H](CCCCN)C(=O)N[C@@H](CCCCN)C(N)=O)[C@@H](C)O [SYERKINRHFKTLKKNLKKK],MIC,[19],25 µM
same,MIC,[16],12.5 µM
same,MIC,[17],12.5 µM
same,MIC,[20],12.5 µM
same,MIC,[21],6.25 µM
same,MIC,[22],12.5 µM
same,MIC,[23],6.25 µM
same,MIC,[24],25 µM
same,MIC,[25],25 µM
CC[C@H](C)[C@H](N)C(=O)N[C@H](C(=O)N[C@@H](CCCCN)C(=O)N[C@@H](CCCCN)C(=O)N[C@H](C(=O)N[C@H](C(=O)N[C@@H](CCCCN)C(=O)N[C@@H](CCCCN)C(=O)N[C@H](C(=O)N[C@H](C(=O)N[C@@H](CCCCN)C(=O)N[C@@H](CCCCN)C(=O)N[C@H](C(N)=O)[C@@H](C)CC)[C@@H](C)CC)[C@@H](C)CC)[C@@H](C)CC)[C@@H](C)CC)[C@@H](C)CC [IIKKIIKKIIKKI],MIC,[26],5 µM
same,MIC,[27],2.5 µM
same,MIC,[28],12 µM
same,MIC,[23],7.5 µM
CC[C@H](C)[C@H](NC(=O)[C@H](CCCCN)NC(=O)[C@@H]1CCCN1C(=O)[C@H](CC(C)C)NC(=O)[C@@H](N)Cc1ccccc1)C(=O)N[C@@H](CC(C)C)C(=O)N[C@@H](CCCN=C(N)N)C(=O)N[C@@H](CCCCN)C(=O)N[C@H](C(=O)N[C@H](C(=O)N[C@@H](CCCN=C(N)N)C(=O)N[C@@H](C)C(=O)N[C@@H](CC(C)C)C(N)=O)C(C)C)[C@@H](C)CC [FLPKILRKIVRAL],MIC,[29],≥ 47.9 µM
same,MIC,[30],23.9 µM
same,MIC,[31],23.9 µM
same,MIC,[6],23.9 µM
same,MIC,[32],≥ 47.9 µM
same,MIC,[33],≥ 383 µM
same,MIC,[12],> 383 µM
same,MIC,[34],≥ 47.9 µM
same,MIC,[17],191 µM
CC(C)C[C@H](NC(=O)[C@H](CC(C)C)NC(=O)[C@H](CCCCN)NC(=O)[C@H](CCCCN)NC(=O)[C@H](CC(C)C)NC(=O)[C@H](CC(C)C)NC(=O)[C@@H]1CCCN1C(=O)[C@H](CCCCN)NC(=O)[C@H](CCCCN)NC(=O)[C@H](CC(C)C)NC(=O)[C@H](CC(C)C)NC(=O)[C@H](CCCCN)NC(=O)[C@H](CCCCN)NC(=O)[C@H](Cc1c[nH]c2ccccc12)NC(=O)[C@@H](N)CCCCN)C(=O)N[C@@H](CCCCN)C(N)=O [KWKKLLKKPLLKKLLK],MIC,[35],3.13 µM
same,MIC,[36],1.56 µM
same,MIC,[16],1.56 µM and > 0.78 µM
CC(=O)N[C@@H](CCC(=O)O)C(=O)N[C@@H](CC(C)C)C(=O)N[C@@H](CC(C)C)C(=O)N[C@@H](CO)C(=O)N[C@@H](CCCN=C(N)N)C(=O)N[C@H](C(=O)N[C@@H](CC(N)=O)C(=O)O)C(C)C [ELLSRVN],MIC,[37],≥ 154 µM
same,MIC,[38],≥ 154 µM
same,MIC,[39],≥ 154 µM
same,MIC,[40],≥ 154 µM
same,MIC,[41],≥ 154 µM
same,MIC,[42],≥ 154 µM
same,MIC,[43],≥ 154 µM
same,MIC,[44],≥ 154 µM
same,MIC,[6],77.1 µM
same,MIC,[45],≥ 154 µM
same,MIC,[13],154 µM
same,MIC,[46],≥ 154 µM
same,MIC,[47],≥ 38.6 µM
same,MIC,[17],38.6 µM
same,MIC,[22],≥ 38.6 µM
